Experimental data as given in PubChem BioAssay (NCI).
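Values below derive from 48-hour exposures of cells grown in 96-well plates, with endpoints linearly interpolated between the two concentrations bracketing the appropriate inhibition level. Here, GI50 denotes the concentration required for 50% inhibition of growth. TGI: concentration producing complete growth inhibition.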

How the values were obtained:
Assay in all cases: NCI anticancer screen, dose series, 48 h
COLO 205 colon = system: COLO 205 colon
HT29 colon = system: HT29 colon
K-562 leukemia = system: K-562 leukemia
M14 melanoma = system: M14 melanoma
OVCAR-4 ovarian = system: OVCAR-4 ovarian
OVCAR-8 ovarian = system: OVCAR-8 ovarian
SF-268 CNS = system: SF-268 CNS
SK-MEL-2 melanoma = system: SK-MEL-2 melanoma
SK-MEL-28 melanoma = system: SK-MEL-28 melanoma
MDA-MB-231 breast = system: MDA-MB-231 breast

Structure (SMILES) | TGI (COLO 205 colon) [µM] | TGI (HT29 colon) [µM] | TGI (K-562 leukemia) [µM] | TGI (M14 melanoma) [µM] | TGI (OVCAR-4 ovarian) [µM] | TGI (OVCAR-8 ovarian) [µM] | TGI (SF-268 CNS) [µM] | TGI (SK-MEL-2 melanoma) [µM] | TGI (SK-MEL-28 melanoma) [µM] | TGI (MDA-MB-231 breast) [µM] | GI50 (HT29 colon) [µM] | GI50 (K-562 leukemia) [µM] | GI50 (M14 melanoma) [µM] | GI50 (SF-268 CNS) [µM] | GI50 (SK-MEL-2 melanoma) [µM] | GI50 (SK-MEL-28 melanoma) [µM] | GI50 (MDA-MB-231 breast) [µM] | GI50 (OVCAR-4 ovarian) [µM] | GI50 (OVCAR-8 ovarian) [µM] | GI50 (COLO 205 colon) [µM]
c1ccc2cc(-c3cc4ccccc4s3)ccc2c1 | > 100 | > 100 | > 100 | > 100 | > 100 | > 100 | > 100 | > 100 | > 100 |  |  |  |  |  |  |  |  |  |  | 
O=c1/c(=C/c2ccccc2[N+](=O)[O-])sc2nnc(-c3ccco3)n12 | > 100 | > 100 | > 100 | 33.3 | 40 | 32.5 | 46.3 | 34.6 | 57 |  |  |  |  |  |  |  |  |  |  | 
OC(CC1SCCCS1)c1ccccc1 (centres undefined) | > 100 | > 100 | > 100 | > 100 | > 100 | > 100 | > 100 | > 100 |  |  |  |  |  |  |  |  |  |  |  | 
CC(C)N(C(=O)C12C3C4C1C1C4(C#N)C3C12C#N)C(C)C (centres undefined) | > 100 | > 100 | > 100 | > 100 | > 100 | > 100 | > 100 |  | > 100 |  |  |  |  |  |  |  |  |  |  | 
N=C(N)C1CN(CCc2c[nH]c3ccccc23)C(=O)NC1=O (centres undefined) | > 100 | > 100 | > 100 | > 100 | > 100 | > 100 | > 100 |  | > 100 | > 100 |  |  |  |  |  |  |  |  |  | 
C#CCOc1cccc(-c2ncc3cc(NC(=O)CCl)ccc3n2)c1 |  | 3.99 | > 100 | 4.54 |  |  | 5.25 | 3.63 | 3.66 |  | 2.02 | 0.561 | 1.81 | 2.03 | 1.58 | 1.98 |  |  |  | 
O=C(CCN(C(=O)O)S(=O)(=O)c1ccc(NC(=O)c2ccccc2)cc1)Nc1ccccc1 | > 80.2 | > 100 | > 83.2 | > 100 | > 100 | > 100 | > 100 | > 100 | > 100 |  |  |  |  |  |  |  |  |  |  | 
Cc1c2n(c(=O)[nH]c1=O)C1OC(CO)C(O2)C1O (centres undefined) | > 100 | > 100 | > 100 |  | > 100 | > 100 | > 100 | > 100 | > 100 |  |  |  |  |  |  |  |  |  |  | 
CSc1nc(=O)n(CCC#N)nc1SC | 52.8 | > 100 | 71.1 | 39.9 |  | > 100 | 53.1 | 39.8 | 47.8 | > 100 |  |  |  |  |  |  |  |  |  | 
NC(N)=N/N=C/c1c(-c2ccsc2)nc2sccn12 |  | 25.3 | 29.9 | 32.4 | 27.1 | 61.7 | 29.4 |  | 27.6 | 30.9 | 11.6 | 13.1 | 18.5 | 15.3 |  | 14.2 | 16.6 | 13.6 | 31.1 | 
NC(=O)/C=C/C(=O)c1c(Cl)cccc1Cl | 0.355 | > 100 | 5.83 | 2.76 |  | 3.27 | 3.21 | 4.01 | 2.52 | 2.47 | 1.55 | 0.653 | 1.45 | 1.71 | 1.83 | 1.21 | 1.23 |  | 1.75 | 0.191
CCCCOC(=O)CNC(=O)OC/C=C/C#CC#C/C=C/COC(=O)NCC(=O)OCCCC | > 100 | > 100 | > 100 | > 100 | > 100 | > 100 | > 100 | > 100 | > 100 |  | > 100 | > 100 | > 100 | > 100 | > 100 | > 100 |  | > 100 | > 100 | > 100
Nc1nc(Cl)cc(NCCCCCCCCNc2cc(Cl)nc(N)n2)n1 | > 100 | > 100 | > 100 | > 100 | > 100 | 58.6 | > 100 | > 100 | > 100 |  |  |  |  |  |  |  |  |  |  | 
Cc1cc(C)c2c(n1)sc1c(Nc3ccc(Cl)cc3)ncnc12 | > 100 | > 100 | > 100 |  | > 100 | > 100 | > 100 | > 100 | > 100 |  | < 0.0152 | 0.0154 | < 0.01 | < 0.01 | > 100 | 4.4 |  | > 100 | < 0.01 | 0.0314
